Where a SMILES comes first, the peptide text is derived from it. Bridges are numbered along the chain shown (N, C = ends). [ ]: non-standard residue; d: D form. The star is where a group is joined. NMeHph(3-OMe-4-CONHMe) = CNC(=O)c1ccc(CC[C@H](NC)C(=O)O)cc1OC; Phe(3-CONHMe,4-OMe) = CNC(=O)c1cc(C[C@H](N)C(=O)O)ccc1OC; Phe(4-CF3) = N[C@@H](Cc1ccc(C(F)(F)F)cc1)C(=O)O; NMePhe(3-Cl) = CN[C@@H](Cc1cccc(Cl)c1)C(=O)O; Ala(4-thiazolyl) = N[C@@H](Cc1cscn1)C(=O)O; Tyr(3-OMe) = COc1cc(C[C@H](N)C(=O)O)ccc1O; NMeF = CN[C@@H](Cc1ccccc1)C(=O)O; NMeI = CC[C@H](C)[C@H](NC)C(=O)O; CH2CH(OH)CF3 = OC(C*)C(F)(F)F; NMeL = CN[C@@H](CC(C)C)C(=O)O; NMeV = CN[C@H](C(=O)O)C(C)C; NMeAbu = CC[C@H](NC)C(=O)O; NMeA = CN[C@@H](C)C(=O)O; Piperidide = C1CCN(*)CC1; Abu = CC[C@H](N)C(=O)O; NBuGly = CCCCNCC(=O)O; NPrGly = CCCNCC(=O)O; X3 = C[C@H](O)C*; Sar = CNCC(=O)O

This note sets out measurements from patent US20230096766A1, “AMINO ACID HAVING FUNCTIONAL GROUP CAPABLE OF INTERMOLECULAR HYDROGEN BONDING, PEPTIDE COMPOUND CONTAINING SAME AND METHOD FOR PRODUCTION THEREOF” (Chugai Seiyaku Kabushiki Kaisha, priority 2018, published 2023).

One data set can be described thus: in vitro. The settings on record: human, Caco-2, Caco-2 (cm/sec).
Usually Papp stands for the rate of passage across a membrane or cell layer, normalised by area and donor concentration. Read a low Papp as poor permeation. Turning to `CC[C@H]1C(=O)N[C@@H](Cc2ccc(O)c(OC)c2)C(=O)N(C)[C@@H](CC(C)C)C(=O)N(C)[C@@H](CC(C)C)C(=O)N[C@@H](C(C)C)C(=O)N(C)[C@@H](Cc2ccccc2)C(=O)N(C)[C@@H](CC(C)C)C(=O)N[C@@H]([C@@H](C)O)C(=O)N(C)CC(=O)N(C)[C@@H](CC(C)C)C(=O)N[C@H](C(=O)N2CCCCC2)CC(=O)N1C` [Compound E06] ([NMeAbu][Tyr(3-OMe)][NMeL][NMeL]V[NMeF][NMeL]T[Sar][NMeL]D-Piperidide; lactam N-11), the Papp amounted to 0.97 ×10⁻⁶ cm/s. The molecule `CCCN1CC(=O)N(C)[C@@H](CC(C)C)C(=O)N[C@@H](COC[C@H](C)O)C(=O)N(C)[C@@H](Cc2cccc(Cl)c2)C(=O)N(C)[C@@H](C(C)C)C(=O)N[C@H](C(=O)N2CCCCC2)CC(=O)N[C@H](C(C)C)C(=O)N(C)[C@@H](Cc2ccccc2)C(=O)N[C@@H](CC(C)C)C(=O)N(C)[C@@H](CC(C)C)C(=O)N[C@@H]([C@@H](C)O)C1=O` [AP70] ([dV][NMeF]L[NMeL]T[NPrGly][NMeL]S(X3)[NMePhe(3-Cl)][NMeV]D-Piperidide; lactam N-11) displayed a Papp of 0.75 ×10⁻⁶ cm/s. On the same count and under the same terms, next, `CNC(=O)c1cc(C[C@@H]2NC(=O)[C@H](CC(C)C)N(C)C(=O)[C@H](CC(C)C)N(C)C(=O)[C@H](CC(C)C)NC(=O)[C@H](CC(C)C)N(C)C(=O)C[C@@H](C(=O)N3CCCCC3)NC(=O)[C@H](CC(C)C)N(C)C(=O)CN(C)C(=O)[C@H]([C@@H](C)O)NC(=O)[C@H](C(C)C)N(C)C(=O)[C@H](CC(C)C)N(C)C2=O)ccc1OC` [AP40] ([NMeL]L[NMeL][NMeL][Phe(3-CONHMe,4-OMe)][NMeL][NMeV]T[Sar][NMeL]D-Piperidide; lactam N-11): 0.63 ×10⁻⁶ cm/s. Regarding `CC[C@H](C)[C@H]1C(=O)N[C@@H]([C@@H](C)O)C(=O)N(C)CC(=O)N(C)[C@@H](CC(C)C)C(=O)N[C@H](C(=O)N2CCCCC2)CC(=O)N(C)[C@@H](C(C)C)C(=O)N[C@@H](CC(C)C)C(=O)N(C)[C@@H](CC(C)C)C(=O)N(C)[C@@H](Cc2ccccc2)C(=O)N[C@@H](COC[C@H](C)O)C(=O)N(C)[C@@H](Cc2ccccc2)C(=O)N1C` [AP66] ([NMeV]L[NMeL][NMeF]S(X3)[NMeF][NMeI]T[Sar][NMeL]D-Piperidide; lactam N-11), the apparent permeability (Papp) worked out at 0.68 ×10⁻⁶ cm/s. The Papp values of the last two molecules are within 1.5-fold of each other. Same read-out and setting: next, `CC[C@@H]1NC(=O)[C@H](CCc2ccc(C(=O)NC)c(OC)c2)N(C)C(=O)[C@H](CC(C)C)N(C)C(=O)[C@H](CC(C)C)NC(=O)[C@H](C)N(C)C(=O)C[C@@H](C(=O)N2CCCCC2)NC(=O)[C@H](CC(C)C)N(C)C(=O)CN(C)C(=O)[C@H]([C@@H](C)O)NC(=O)[C@H](CC(C)C)N(C)C(=O)[C@H](Cc2ccccc2)N(C)C1=O` [AP229] ([NMeA]L[NMeL][NMeHph(3-OMe-4-CONHMe)][Abu][NMeF][NMeL]T[Sar][NMeL]D-Piperidide; lactam N-11): 0.43 ×10⁻⁶ cm/s.

Staying with this data set, now noted: human, Caco-2, Caco-2 (cm/sec) Papp.
In the case of `CC(C)C[C@@H]1NC(=O)[C@H](CC(C)C)N(C)C(=O)[C@H](CC(C)C)N(C)C(=O)CNC(=O)[C@H](Cc2ccccc2)N(C)C(=O)[C@H](Cc2cscn2)NC(=O)[C@H](CC(C)C)N(C)C(=O)[C@H](Cc2ccccc2)NC(=O)[C@H](C)NC(=O)C[C@@H](C(=O)N(C)[C@@H](Cc2ccccc2)C(=O)N[C@@H](C)C(=O)N2CCCCC2)NC1=O` [pd235] (AF[NMeL][Ala(4-thiazolyl)][NMeF]G[NMeL][NMeL]LD[NMeF]A-Piperidide; lactam N-10), the apparent permeability coefficient (Papp) turned out to be 0.1 ×10⁻⁶ cm/s.

Still in this data set, the particulars now being: human, Caco-2, Caco-2 (membrane permeability).
With `CC[C@H](C)[C@H]1C(=O)N[C@@H](C(C)C)C(=O)N(C)CC(=O)N(C)[C@@H](CC(C)C)C(=O)N[C@H](C(=O)N2CCCCC2)CC(=O)N(C)[C@@H](C)C(=O)N[C@@H](COCC(O)C(F)(F)F)C(=O)N(C)[C@@H](CC(C)C)C(=O)N(C)[C@@H](Cc2ccccc2)C(=O)N[C@@H](CC(C)C)C(=O)N(C)[C@@H](Cc2ccccc2)C(=O)N1C` (stereo partly drawn) [Compound C15] ([NMeA]S(CH2CH(OH)CF3)[NMeL][NMeF]L[NMeF][NMeI]V[Sar][NMeL]D-Piperidide; lactam N-11), the Papp was found to be 0.83 ×10⁻⁶ cm/s.

Regarding `CCCCN1CC(=O)N(C)[C@@H](Cc2ccccc2)C(=O)N[C@@H]([C@@H](C)CC)C(=O)N(C)[C@@H](CC(C)C)C(=O)N[C@@H]([C@@H](C)O)C(=O)N(CCCC)CC(=O)N(C)[C@@H](Cc2ccccc2)C(=O)N(C)[C@@H](CC(C)C)C(=O)N[C@@H](CCC(=O)NC)C(=O)N(C)[C@@H]([C@@H](C)CC)C(=O)N[C@H](C(=O)N2CCCCC2)CC1=O` [Compound J06] ([NBuGly][NMeF]I[NMeL]T[NBuGly][NMeF][NMeL]E(NHMe)[NMeI]D-Piperidide; lactam N-11), the apparent permeability coefficient (Papp) turned out to be 0.0085 ×10⁻⁶ cm/s.

Turning to `CCCN1CC(=O)N(C)[C@@H](CC(C)C)C(=O)N[C@H](C(=O)N2CCCCC2)CC(=O)N(C)[C@@H](CC(C)C)C(=O)N[C@@H](Cc2ccc(C(F)(F)F)cc2)C(=O)N(C)[C@@H](CC(C)C)C(=O)N(C)[C@@H](CC(C)C)C(=O)N[C@@H](CCC(=O)NC)C(=O)N(C)[C@@H](Cc2ccccc2)C(=O)N(C)[C@@H]([C@@H](C)CC)C(=O)N[C@@H]([C@@H](C)O)C1=O` [Compound J04] ([NMeL][Phe(4-CF3)][NMeL][NMeL]E(NHMe)[NMeF][NMeI]T[NPrGly][NMeL]D-Piperidide; lactam N-11), the Papp was 0.087 ×10⁻⁶ cm/s. Against the preceding molecule, the Papp is about 10-fold higher.
